Assay [1] addresses Estrogen receptor beta (Homo sapiens) (UniProt Q92731). Put plainly: Displacement of [2,4,6,7-3H]17beta-estradiol from human recombinant ERbeta receptor by liquid scintillation counter relative to 17-beta-estradiol.
Assay [2] concerns the target T1, Estrogen receptor (Homo sapiens) (UniProt P03372).
T1 sequence (whole entry): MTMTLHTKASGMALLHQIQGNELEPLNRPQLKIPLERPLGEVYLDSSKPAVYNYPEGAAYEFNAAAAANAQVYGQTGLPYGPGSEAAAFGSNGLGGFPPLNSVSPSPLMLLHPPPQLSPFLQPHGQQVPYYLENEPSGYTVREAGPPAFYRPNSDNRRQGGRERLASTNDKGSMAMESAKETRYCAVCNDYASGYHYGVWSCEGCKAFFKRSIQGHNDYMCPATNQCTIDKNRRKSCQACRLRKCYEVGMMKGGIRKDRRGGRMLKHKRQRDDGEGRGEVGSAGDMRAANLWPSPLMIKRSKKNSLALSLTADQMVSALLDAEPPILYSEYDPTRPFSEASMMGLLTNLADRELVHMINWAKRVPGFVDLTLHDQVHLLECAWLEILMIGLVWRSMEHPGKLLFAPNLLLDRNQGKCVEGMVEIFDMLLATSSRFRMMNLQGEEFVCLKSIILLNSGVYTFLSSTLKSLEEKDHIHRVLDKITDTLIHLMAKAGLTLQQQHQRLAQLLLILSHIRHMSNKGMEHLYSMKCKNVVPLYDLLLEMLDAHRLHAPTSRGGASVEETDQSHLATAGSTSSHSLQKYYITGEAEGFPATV
Put plainly: Displacement of [2,4,6,7-3H]17beta-estradiol from human recombinant ERalpha receptor by liquid scintillation counter relative to 17-beta-estradiol.

Assay [3] has as its system MCF7. The assay can be described thus: cells. The settings on record: Homo sapiens, MCF7, 144 h.
Assay [4] deals with MCF7. The assay can be described thus: Antiestrogenic activity in human MCF7 cells. The assay is classed as functional, cell-based.
For a further assay, the species on record is Homo sapiens. The assay can be described thus: Selectivity ratio of relative binding affinity for human recombinant ERalpha receptor to relative binding affinity for human recombinant ERbeta receptor.
Assay [5] deals with MCF7. The assay can be described thus: Estrogenic activity in human MCF7 cells assessed as cell proliferation after 6 days by WST8 assay relative to 17-beta-estradiol. The assay is classed as functional. On the technique in general: Formazan colour is commonly taken as a measure of viable cells.
Assay [6] has as its system MCF7. Put plainly: Estrogenic activity in human MCF7 cells assessed as cell proliferation after 6 days by WST8 assay.

Activity calls are given as the source filed them. The calls are words filed in the database; no cut-off is given here.

Chain of Estrogen receptor beta (Homo sapiens) (Q92731 whole entry): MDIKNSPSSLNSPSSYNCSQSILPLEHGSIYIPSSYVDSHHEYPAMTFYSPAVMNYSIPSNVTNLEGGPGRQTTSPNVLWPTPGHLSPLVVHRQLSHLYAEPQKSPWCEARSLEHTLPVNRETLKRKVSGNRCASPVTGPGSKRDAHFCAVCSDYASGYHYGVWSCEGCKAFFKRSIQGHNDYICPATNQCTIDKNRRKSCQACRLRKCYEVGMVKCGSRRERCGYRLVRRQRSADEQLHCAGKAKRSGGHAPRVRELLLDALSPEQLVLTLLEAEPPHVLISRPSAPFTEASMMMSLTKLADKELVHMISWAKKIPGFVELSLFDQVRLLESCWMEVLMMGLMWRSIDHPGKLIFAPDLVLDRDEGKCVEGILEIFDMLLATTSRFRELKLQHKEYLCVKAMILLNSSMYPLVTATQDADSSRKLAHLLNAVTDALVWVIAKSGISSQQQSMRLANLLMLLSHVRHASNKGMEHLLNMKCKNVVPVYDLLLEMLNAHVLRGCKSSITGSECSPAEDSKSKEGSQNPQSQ

In the case of `CC(C)CCN(c1ccc(O)cc1)c1ccc(O)cc1`, the relative binding affinity (RBA) in assay [1] is 2.34; in assay [2] it was 0.129. Further, a half-maximal response with MCF7 [3] (EC50) required 570 nM. The result in the assay with MCF7 [4] was inactive. Moreover, the Ratio in the assay filed under Homo sapiens worked out at 18.1. In the assay on MCF7 [5], the Activity is 31.

As to `O=S(=O)(c1ccccc1)N(c1ccc(O)cc1)c1ccc(O)cc1`, the relative binding affinity (RBA) is under 0.001 in assay [1] and 0.04 in assay [2]. For the same compound, the EC50 (usually the midpoint of the concentration-response curve) with MCF7 [3] is 63 nM. Further, the result in the assay with MCF7 [4] was inactive. Moreover, the Activity with MCF7 [5] amounted to 98.

As for `Oc1ccc(Nc2ccc(O)cc2)cc1`, the relative binding affinity (RBA) in assay [1] and in assay [2] was under 0.001 throughout. For the same compound, the result with MCF7 [4] and in the assay with MCF7 [6] was inactive.

In the case of `O=C(c1ccccc1)N(c1ccc(O)cc1)c1ccc(O)cc1`, the relative binding affinity (RBA) came to 1.26 in assay [1] and 0.193 in assay [2]. Further, a half-maximal response with MCF7 [3] (EC50) required 14 nM. For the same compound, the outcome in the assay on MCF7 [4] was inactive. The Ratio in the assay listed under Homo sapiens came to 6.52. The Activity in the assay on MCF7 [5] came to 114.

On to `Oc1ccc(N(CC2CCCCC2)c2ccc(O)cc2)cc1`, for which the relative binding affinity (RBA) worked out at 6.7 in assay [1] and 0.89 in assay [2]. In the assay on MCF7 [3], this compound displayed an EC50 of 210 nM. Moreover, in the assay on MCF7 [4], the result was inactive. Also, the Ratio in the assay filed under Homo sapiens is 7.52. Moreover, the Activity in the assay on MCF7 [5] came to 109.

As for `Oc1ccc(N(c2ccc(O)cc2)C2CCCCC2)cc1`, the values for the relative binding affinity (RBA) in assay [1] and in assay [2] were 4.3 and 1.13, respectively. For the same compound, in the assay on MCF7 [3], it took 590 nM to reach a half-maximal effect (EC50). Further, the outcome with MCF7 [4] was inactive. In the assay filed under Homo sapiens, the Ratio turned out to be 3.8. The Activity in the assay with MCF7 [5] was found to be 64.

In the case of `O=C(c1ccc(O)cc1)N(c1ccc(O)cc1)c1ccc(O)cc1`, the relative binding affinity (RBA) is 0.063 in assay [1] and 0.336 in assay [2]. This compound also returned an EC50 in the assay on MCF7 [3] of 5.2 nM. For the same compound, in the assay with MCF7 [4], the outcome was inactive. Moreover, the Ratio in the assay filed under Homo sapiens is 0.188. Moreover, in the assay on MCF7 [5], the Activity is listed as 240.

On to `Oc1ccc(N(CC23CC4CC(CC(Br)(C4)C2)C3)c2ccc(O)cc2)cc1`, for which the values for the relative binding affinity (RBA) in assay [1] and in assay [2] were 0.565 and 0.551, respectively. In the assay with MCF7 [3], this compound had an EC50 of 11000 nM. In addition, in the assay with MCF7 [4], the result was inactive. Further, in the assay listed under Homo sapiens, the Ratio worked out at 1.02. For the same compound, the Activity with MCF7 [5] is recorded as 77.

For the compound `Oc1ccc(N(CC2CC2)c2ccc(O)cc2)cc1`, the results for the relative binding affinity (RBA) in assay [1] and in assay [2] were under 0.001 and 0.054, respectively. In addition, the result in the assay on MCF7 [4] was inactive.

For the compound `Oc1ccc(N(CCC2CCCCC2)c2ccc(O)cc2)cc1`, the results for the relative binding affinity (RBA) in assay [1] and in assay [2] were 6.84 and 3.64, respectively. In the assay with MCF7 [3], this compound came in with an EC50 of 500 nM. Further, the outcome in the assay with MCF7 [4] was inactive. Also, the Ratio in the assay filed under Homo sapiens was determined as 1.88. The Activity in the assay on MCF7 [5] turned out to be 71.

For the compound `O=S(=O)(c1ccc(O)cc1)N(c1ccc(O)cc1)c1ccc(O)cc1`, the relative binding affinity (RBA) in assay [1] was 0.004; in assay [2], 0.352. This compound also came in with an EC50 in the assay with MCF7 [3] of 12 nM. For the same compound, in the assay on MCF7 [4], the outcome was inactive. Moreover, the Ratio in the assay filed under Homo sapiens turned out to be 0.011. Also, the Activity in the assay with MCF7 [5] came to 99.

For the compound `CCCCCCN(c1ccc(O)cc1)c1ccc(O)cc1`, the values for the relative binding affinity (RBA) in assay [1] and in assay [2] were 0.102 and 0.153, respectively. Further, in the assay with MCF7 [3], the EC50 was 11 nM. The result in the assay on MCF7 [4] was inactive. Also, the Ratio in the assay filed under Homo sapiens stood at 0.667. Further, the Activity with MCF7 [5] turned out to be 130.

`CN(c1ccc(O)cc1)c1ccc(O)cc1`: the relative binding affinity (RBA) in assay [1] and in assay [2] was under 0.001 each time. For the same compound, the result in the assay with MCF7 [4] and in the assay with MCF7 [6] was inactive.

As to `Oc1ccc(N(c2ccccc2)c2ccc(O)cc2)cc1`, the relative binding affinity (RBA) in assay [1] stood at 1.91; in assay [2], 1.29. The same compound showed an EC50 with MCF7 [3] of 120 nM. Moreover, the outcome in the assay with MCF7 [4] was inactive. In addition, in the assay filed under Homo sapiens, the Ratio stood at 1.48. In addition, in the assay with MCF7 [5], the Activity came to 87.

As for `Oc1ccc(N(Cc2ccccc2)c2ccc(O)cc2)cc1`, the relative binding affinity (RBA) in assay [1] stood at 18.1; in assay [2], 0.655. The EC50 with MCF7 [3] was 67 nM. In addition, the outcome with MCF7 [4] was inactive. Further, the Ratio in the assay filed under Homo sapiens was found to be 27.7. For the same compound, the Activity with MCF7 [5] was 85.

For `CS(=O)(=O)N(c1ccc(O)cc1)c1ccc(O)cc1`, the relative binding affinity (RBA) in assay [1] and in assay [2] was under 0.001 in each case. In addition, the EC50 in the assay with MCF7 [3] is 6900 nM. For the same compound, in the assay on MCF7 [4], the result was inactive. For the same compound, the Activity in the assay on MCF7 [5] was determined as 213.

As to `Oc1ccc(CN(c2ccc(O)cc2)c2ccc(O)cc2)cc1`, the relative binding affinity (RBA) in assay [1] was found to be 4.05; in assay [2], 4.26. In the assay on MCF7 [3], this compound showed an EC50 of 370 nM. The result in the assay with MCF7 [4] was inactive. In the assay listed under Homo sapiens, the Ratio stood at 0.951. In addition, in the assay on MCF7 [5], the Activity is listed as 42.

`CC(=O)N(c1ccc(O)cc1)c1ccc(O)cc1`: the relative binding affinity (RBA) in assay [1] and in assay [2] was under 0.001 in each case. For the same compound, the EC50 in the assay on MCF7 [3] came to 43000 nM. In the assay on MCF7 [4], the result was inactive. The Activity with MCF7 [5] was 114.

As for `CC(C)N(c1ccc(O)cc1)c1ccc(O)cc1`, the relative binding affinity (RBA) in assay [1] and in assay [2] was under 0.001 throughout. Also, the outcome in the assay with MCF7 [4] and in the assay with MCF7 [6] was inactive.
